Results on six compounds are retold here after ChEMBL document CHEMBL1151519, “Xanthene derived potent nonpeptidic inhibitors of recombinant human calpain I” (Bioorg Med Chem Lett, 1996).

The first test concerns the target T1, Calpain-1 catalytic subunit (Homo sapiens, UniProt P07384).
T1 sequence (P07384 whole entry): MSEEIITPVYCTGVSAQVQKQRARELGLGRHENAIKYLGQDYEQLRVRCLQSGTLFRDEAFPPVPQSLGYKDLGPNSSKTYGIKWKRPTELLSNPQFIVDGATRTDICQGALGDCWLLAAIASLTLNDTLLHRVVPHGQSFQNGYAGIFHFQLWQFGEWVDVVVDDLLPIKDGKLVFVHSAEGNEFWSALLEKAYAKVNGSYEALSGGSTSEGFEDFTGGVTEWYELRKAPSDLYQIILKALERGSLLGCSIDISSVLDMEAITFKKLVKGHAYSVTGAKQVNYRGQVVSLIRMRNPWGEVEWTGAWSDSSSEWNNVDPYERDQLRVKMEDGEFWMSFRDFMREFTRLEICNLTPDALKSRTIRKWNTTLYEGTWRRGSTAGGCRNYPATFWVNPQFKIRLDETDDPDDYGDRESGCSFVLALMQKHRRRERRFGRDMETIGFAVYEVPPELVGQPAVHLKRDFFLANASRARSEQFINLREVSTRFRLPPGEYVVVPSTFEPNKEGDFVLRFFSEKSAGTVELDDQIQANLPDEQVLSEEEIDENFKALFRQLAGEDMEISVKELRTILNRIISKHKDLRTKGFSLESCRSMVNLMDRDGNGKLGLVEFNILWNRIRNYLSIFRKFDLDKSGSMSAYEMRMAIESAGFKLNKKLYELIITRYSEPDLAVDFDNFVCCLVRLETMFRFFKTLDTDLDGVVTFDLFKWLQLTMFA
As to the kind of experiment: (§1) Inhibitory activity of compound against recombinant human Calpain 1.
For orientation: IC50 means the concentration that inhibits the measured activity by half. For the compound `CCNC(=O)C(CC(C)C)NC(=O)[C@@H](CC(=O)C1c2ccccc2Oc2ccccc21)CC(C)C` (stereo partly specified), the IC50 was 130 nM. For `CC(C)C[C@H](CC(=O)CCCCc1ccccc1)C(=O)N[C@H](C=O)CC(C)C`, the IC50 amounted to 138 nM.

For `CC(C)C[C@H](CC(=O)C(c1ccccc1)c1ccccc1)C(=O)N[C@H](C=O)CC(C)C`, the IC50 is 50 nM. Still for that read-out and setting: under `CC(C)C[C@H](CC(=O)C1c2ccccc2Oc2ccccc21)C(=O)N[C@H](C=O)CC(C)C` stands 25 nM; under `CCNC(=O)C(=O)C(CC)NC(=O)[C@H](CC(C)C)NC(=O)OCc1ccccc1` (stereo partly specified), 240 nM.

A further test has as its target T2, Calpain-1 catalytic subunit (Homo sapiens) (UniProt P07384).
T2 sequence (whole entry): T1 sequence (P07384 whole entry)
The test is described as §1.
Take `CC(C)C[C@H](CC(=O)C1c2ccccc2Oc2ccccc21)C(=O)NC(Cc1ccccc1)C(=O)CF` (stereo partly specified): the K obs / 1 was 76000 M⁻¹ s⁻¹.
